{"source": "patent US20220306603A1", "about": "“TARGETING DNA REPAIR IN TUMOR CELLS VIA INHIBITION OF ERCC1-XPF” (The Governors of the University of Alberta, priority 2019, published 2022)", "key": {"CYP1A2": {"biological_target": "T1, CYP1A2 (Homo sapiens, UniProt P05177)", "T1 sequence (P05177 1-516)": "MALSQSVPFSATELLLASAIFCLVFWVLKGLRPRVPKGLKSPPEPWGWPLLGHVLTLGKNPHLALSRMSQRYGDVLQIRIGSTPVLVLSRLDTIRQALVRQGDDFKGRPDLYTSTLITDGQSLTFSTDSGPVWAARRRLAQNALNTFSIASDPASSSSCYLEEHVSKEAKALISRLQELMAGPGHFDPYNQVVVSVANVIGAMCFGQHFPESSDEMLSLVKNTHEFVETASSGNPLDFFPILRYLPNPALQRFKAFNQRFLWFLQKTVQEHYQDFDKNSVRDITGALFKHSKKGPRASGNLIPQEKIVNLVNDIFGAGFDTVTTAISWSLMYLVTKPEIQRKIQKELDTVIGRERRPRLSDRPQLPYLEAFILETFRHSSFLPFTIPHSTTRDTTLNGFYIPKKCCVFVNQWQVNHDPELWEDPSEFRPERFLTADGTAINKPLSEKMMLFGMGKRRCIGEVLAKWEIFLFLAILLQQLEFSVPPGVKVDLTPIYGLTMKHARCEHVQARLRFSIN", "assay": "CYP450 inhibition, CYP1A2"}, "HCT116 cells [1]": {"test_system": "HCT116 cells", "assay": "Clonogenic survival assay, UV treatment", "type": "cell-based, human", "conditions": "254 nm UV 0-10 J/m^2; compound 0.5-4 μM", "procedure": "UV treatment: HCT116 cells (100-800 cells depending on the UV dose) were plated in triplicate in 60-mm petri dishes. The cells were incubated overnight at 37° C. in a humidified atmosphere containing 5% CO2 to allow for cell attachment. […] Medium was removed again, and cells were exposed to increasing doses (0-10 J/m^2) of UV-C radiation and then incubated for a further 10 days in the presence of inhibitor at 37° C. in a 5% CO2 atmosphere to allow for colony formation. After this period plates were stained with crystal violet and colonies were counted using a Colcount instrument (Oxford Optronix, Abingdon UK). Finally, plating efficiency and surviving fraction were calculated."}, "serum proteins": {"test_system": "serum proteins", "assay": "ADME screening: serum protein binding", "type": "in vitro ADME", "conditions": "Table 8"}, "ERCC1-XPF complex": {"biological_target": "T2, ERCC1-XPF complex (Homo sapiens, UniProt Q92889)", "T2 construct": "His6; made in house; host or cells: E. coli BL21 (DE3)", "T2 sequence (Q92889 1-916)": "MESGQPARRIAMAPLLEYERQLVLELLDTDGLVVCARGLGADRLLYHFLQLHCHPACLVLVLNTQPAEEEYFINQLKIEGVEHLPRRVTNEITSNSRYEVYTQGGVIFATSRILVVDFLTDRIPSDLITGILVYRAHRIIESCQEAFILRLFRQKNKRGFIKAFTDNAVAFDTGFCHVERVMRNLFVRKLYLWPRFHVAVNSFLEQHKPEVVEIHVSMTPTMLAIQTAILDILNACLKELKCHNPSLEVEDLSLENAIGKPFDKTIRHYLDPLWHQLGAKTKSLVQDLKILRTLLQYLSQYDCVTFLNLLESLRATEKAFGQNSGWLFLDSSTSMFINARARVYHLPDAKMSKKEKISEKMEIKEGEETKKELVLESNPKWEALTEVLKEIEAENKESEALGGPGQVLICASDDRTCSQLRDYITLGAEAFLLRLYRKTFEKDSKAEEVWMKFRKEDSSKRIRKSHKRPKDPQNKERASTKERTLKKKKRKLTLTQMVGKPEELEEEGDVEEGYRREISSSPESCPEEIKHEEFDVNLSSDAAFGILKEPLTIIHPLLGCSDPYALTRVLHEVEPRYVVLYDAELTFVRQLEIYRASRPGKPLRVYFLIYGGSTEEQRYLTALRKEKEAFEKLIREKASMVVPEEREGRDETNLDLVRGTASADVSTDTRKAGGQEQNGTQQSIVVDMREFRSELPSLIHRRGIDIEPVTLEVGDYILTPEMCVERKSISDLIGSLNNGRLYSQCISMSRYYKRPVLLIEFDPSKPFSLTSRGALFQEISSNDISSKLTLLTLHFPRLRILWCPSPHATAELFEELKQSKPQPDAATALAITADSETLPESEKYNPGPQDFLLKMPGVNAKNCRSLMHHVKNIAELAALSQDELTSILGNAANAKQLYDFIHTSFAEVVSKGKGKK", "assay": "Steady-state intrinsic tryptophan fluorescence quenching binding assay", "conditions": "2 μM compound; excitation 295 nm", "procedure": "Steady-state fluorescence spectra were measured at room temperature on a Perkin-Elmer LS-55 spectrofluorometer (Freemont, Calif.) with 5 nm spectral resolution for excitation and emission using 30-80 nM solution of purified recombinant ERCC1-XPF protein complex. […] In studying the effects of inhibitors on protein fluorescence intensities, additions to protein samples were made from inhibitors stock solutions, keeping the protein dilution below 3%."}, "[2]": {"biological_target": "T3, truncated ERCC1 (dERCC1) and XPF (dXPF) dimer (Homo sapiens, UniProt Q92889)", "T3 construct": "XPF (dXPF, codons 667-916); made in house", "T3 sequence (Q92889 667-916)": "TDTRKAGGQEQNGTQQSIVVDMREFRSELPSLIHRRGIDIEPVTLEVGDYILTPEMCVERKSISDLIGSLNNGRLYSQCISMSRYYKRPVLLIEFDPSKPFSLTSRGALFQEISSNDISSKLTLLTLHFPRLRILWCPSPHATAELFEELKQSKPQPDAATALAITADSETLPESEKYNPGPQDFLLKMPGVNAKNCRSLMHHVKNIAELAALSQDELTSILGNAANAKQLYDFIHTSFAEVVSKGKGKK", "assay": "Micro Scale Thermophoresis of truncated ERCC1-XPF", "type": "binding", "conditions": "truncated dimer compared to individual peptides", "excerpt": "MST allows for the detection of interactions and changes in the molecular properties of biomolecules at low nanomolar concentrations. We synthesized two human recombinant truncated forms of ERCC1 (dERCC1, codons 96-297) and XPF (dXPF, codons 667-916) for this study because these peptides contain the subunit interaction domains that the inhibitor was designed to disrupt."}, "[3]": {"assay": "ADME screening: cell permeability and efflux ratio", "conditions": "Table 8"}, "HCT116 cells [4]": {"test_system": "HCT116 cells", "assay": "Clonogenic survival assay, cyclophosphamide treatment", "type": "cell-based, human", "conditions": "cyclophosphamide 0-300 μM, compound 1-4 μM", "procedure": "Plates were incubated for another 8 days at 37° C. in a 5% CO2 atmosphere for colony formation. After this period plates were stained with crystal violet, colonies were counted, and plating efficiency and surviving fraction were calculated."}}, "note": "“Also recorded” adds a separate entry of the source.", "data": [{"smiles": "COc1ccc2nc3cc(Cl)ccc3c(Nc3ccc(O)c(CN4CCN(CCN(C)C)CC4)c3)c2c1", "note": "[Compound A4, 4-((6-Chloro-2-methoxyacridin-9-yl)amino)-2-((4-(2-(dimethylamino)ethyl)piperazin-1-yl)methyl) phenol]", "values": [{"measurement": "IC50", "setting": "CYP1A2", "value": 6.4, "unit": "µM"}, {"measurement": "sensitisation to UV radiation, clonogenic survival (in words)", "setting": "HCT116 cells [1]", "value": "significantly reduced survival"}, {"measurement": "Serum protein binding (% bound)", "setting": "serum proteins", "value": "(99.9) % bound"}, {"measurement": "Serum protein binding (in words)", "setting": "serum proteins", "value": "Strong"}, {"measurement": "quenching of protein fluorescence at 330 nm", "setting": "ERCC1-XPF complex", "value": "~23±2", "unit": "%"}, {"measurement": "change in thermophoresis properties (in words)", "setting": "[2]", "value": "induced a larger change in the thermophoresis properties of the truncated dimer"}, {"measurement": "Cell permeability (Mean recovery %) (in words)", "setting": "[3]", "value": "Low"}, {"measurement": "sensitisation to cyclophosphamide, clonogenic survival (in words)", "setting": "HCT116 cells [4]", "value": "no colonies were observed; also recorded: significantly sensitized the cells to cyclophosphamide; also recorded: no colonies were detected"}, {"measurement": "sensitisation to cyclophosphamide, clonogenic survival (in words)", "setting": "HCT116 cells [4]; listed as Gen A4", "value": "significantly sensitized the cells to cyclophosphamide"}]}]}
